Laboratory results reported in patent publication US10760110B2, “Antibiotic testing and screening system” (priority 2017, dated 2020).
Like-named read-outs stand apart in the source and are kept apart here.

Columns and labels:
[1] = test system: A. baumannii KW1 strains with tet resistance gene plasmids; test: Etest MIC of tetracyclines, tet resistance gene (Table 20); type: cell-based, Acinetobacter baumannii; conditions: for MIC: Acinetobacter baumannii
Description: (§1) DNA fragments of the resistance genes along with their flanking regions were amplified from clinical plasmids via PCR with specific primer pairs. The resulting PCR fragments were digested and then cloned into the plasmid pYMAb5 or pYMAb5Tc. The resulting plasmids were then transformed into A. baumannii KW1 via electroporation.
(§2) The MICs of antibiotics were determined using the Etest (Biodisk AB, Sweden) according to the manufacturer's instructions. The MICs from the Etest, which fall between standard two-fold dilutions, were rounded up to the next highest two-fold value. The MICs of ceftazidime and cefotaxime against K. pneumoniae NVT1001 harbouring the pACYC177 plasmid with blaOXA-48 were further determined using a broth microdilution test according to the recommendations of the CLSI,^25 and the results were interpreted according to the breakpoints established by the CLSI in 2017.^25 Meanwhile, due to the lack of CLSI breakpoints in 2016 and 2017, the results for cephalothin were interpreted according to the breakpoints established by the CLSI in 2015,^26 and the results for moxifloxacin were interpreted according to the breakpoints established by the EUCAST in 2017.^27

[2] = test system: K. pneumoniae NVT1001 and ΔramR strains with tet resistance gene plasmids; test: Etest MIC of tetracyclines, AcrAB-TolC overexpression (ΔramR) and/or tet resistance gene (Table 14); type: cell-based, Klebsiella pneumoniae; conditions: Klebsiella pneumoniae
Description: (§3) DNA fragments of the resistance genes along with their flanking regions were amplified from clinical plasmids via PCR with specific primer pairs. The resulting PCR fragments were digested and then cloned into the plasmid pACYC177 or pACYC184. The resulting plasmids were then transformed into K. pneumoniae strain NVT1001 via electroporation. The recombinant bacteria were plated onto LB agar plates containing kanamycin (50 mg/L) or chloramphenicol (50 mg/L), and the presence of the cloned gene was confirmed via PCR and DNA sequencing.
as §2

[3] = test system: K. pneumoniae NVT1001 ΔramRΔompK35/36 mutant and its revertants; test: Etest MIC, ΔramRΔompK35/36 mutant and its revertants (Table 7); type: cell-based; conditions: Klebsiella pneumoniae
Source text: The allelic-exchange method was used to restore the wild-type gene in the K. pneumoniae NVT1001 mutants with constructed chromosome-mediated resistance mechanisms, as described by Tsai et al.^19 Briefly, a DNA fragment of the entire wild-type gene sequence along with flanking regions was amplified from K. pneumoniae NVT1001 using PCR with specific primers. The resulting PCR fragment was digested and then cloned into pUT-KB. For homologous recombination, this plasmid was transformed into E. coli S17-1 λpir^23 via electroporation and mobilized into the K. pneumoniae NVT1001 mutant via conjugation. […] After incubation in 20 mL BHI broth for 6 hours at 37° C. in the absence of kanamycin, the fully grown cultures were spread onto LB agar plates supplemented with 10% sucrose. After the double crossover occurred, the sucrose-resistant and kanamycin-susceptible colonies were selected, and the restoration of the wild-type gene was confirmed via DNA sequencing.
as §2

[4] = test system: K. pneumoniae NVT1001 and its ΔompK35/36 and/or ΔramR mutants; test: Etest MIC, OmpK35/36 loss and AcrAB-TolC overexpression (ΔramR) strains (Table 6); type: cell-based, Klebsiella pneumoniae; conditions: Klebsiella pneumoniae
Procedure, shortened: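 Ceftazidime and cefotaxime were tested by CLSI broth microdilution on the blaOXA-48 pACYC177 transformant of NVT1001, using CLSI 2017 breakpoints. Parent, porin-deleted (ΔompK35/36) and ΔramR strains were tested by Etest, with values between two-fold dilutions rounded up.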

[5] = test system: K. pneumoniae NVT1001 strains with aminoglycoside resistance plasmids; test: Etest MIC of aminoglycosides, aminoglycoside-modifying enzyme or 16S rRNA methylase (Table 13); type: cell-based, Klebsiella pneumoniae; conditions: for effects on the MIC / resistance: production of 16S rRNA methylase, ArmA and RmtB
Description: as §3, §2

[6] = test system: A. baumannii KW1 strains with aminoglycoside resistance plasmids; test: Etest MIC of aminoglycosides, aminoglycoside-modifying enzyme or 16S rRNA methylase (Table 19); type: cell-based, Acinetobacter baumannii; conditions: for effects on the MIC / resistance: production of 16S rRNA methylase, ArmA; for effects on the MIC: production of aminoglycoside-modifying enzymes
Description: as §1, §2

[7] = ΔramRΔ35/36, ΔramRΔompK35/36 mutant
[8] = NVT1001, no supplemental plasmid
[9] = NVT1001 with AAC(3)-IId on pACYC184
[10] = NVT1001 with AAC(3)-IVa on pACYC184
[11] = NVT1001 with AAC(6′)-Ib-cr on pACYC184
[12] = NVT1001 with ANT(2″)-Ia on pACYC184
[13] = NVT1001 with ANT(3″)-Ia on pACYC184
[14] = NVT1001 with APH(3′)-IIa on pACYC184
[15] = NVT1001 with APH(3′)-Ia on pACYC184
[16] = NVT1001 with StrA-StrB on pACYC184
[17] = KW1 with AAC(3)-IIa on pYMAb5Tc
[18] = KW1 with ANT(2”)-Ia on pYMAb5Tc
[19] = KW1 with ANT(3”)-Ia on pYMAb5Tc
[20] = KW1 with APH(3')-Ia on pYMAb5Tc
[21] = KW1 with APH(3')-VIa on pYMAb5Tc
[22] = KW1 with shuttle vector pYMAb5Tc

C[C@H]1c2cccc(O)c2C(=O)C2=C(O)[C@]3(O)C(=O)C(C(N)=O)=C(O)[C@@H](N(C)C)[C@@H]3[C@@H](O)[C@@H]21 [Doxycycline, doxycycline]
64 µg/mL: MIC ([2]; ΔramR, no supplemental plasmid) | MIC ([3]; ΔramRΔompK35/36::ompK35/36 revertant) | MIC ([3]; ΔramRΔompK35/36::ompK35 revertant) | MIC ([3]; ΔramRΔompK35/36::ompK36 revertant) | MIC ([4]; ΔramR mutant) | MIC ([4]; ΔramRΔ35, ΔramRΔompK35 mutant) | MIC ([4]; ΔramRΔ36, ΔramRΔompK36 mutant)
192 µg/mL: MIC ([1]; KW1, Tet(M) on pYMAb5)
16 µg/mL: MIC ([2]; NVT1001, Tet(C) on pACYC177, read-out: MIC)
> 256 µg/mL: MIC ([2]; NVT1001, Tet(A) on pACYC177, read-out: MIC) | MIC ([2]; NVT1001, Tet(B) on pACYC177, read-out: MIC) | MIC ([2]; ΔramR, Tet(A) on pACYC177) | MIC ([2]; ΔramR, Tet(B) on pACYC177)
4 µg/mL: MIC ([2]; NVT1001, no supplemental plasmid, read-out: MIC) | MIC ([3]; ΔramRΔompK35/36::ramR revertant) | MIC ([3]; ΔramRΔompK35/36::ramR::ompK35/36 revertant) | MIC ([3]; ΔramRΔompK35/36::ramR::ompK35 revertant) | MIC ([3]; ΔramRΔompK35/36::ramR::ompK36 revertant) | MIC ([4]; WT, NVT1001, read-out: MIC) | MIC ([4]; Δ35, ΔompK35 mutant) | MIC ([4]; Δ35/36, ΔompK35/36 mutant) | MIC ([4]; Δ36, ΔompK36 mutant)
12 µg/mL: MIC ([1]; KW1, Tet(A) on pYMAb5)
128 µg/mL: MIC ([2]; NVT1001, Tet(D) on pACYC177, read-out: MIC) | MIC ([2]; ΔramR, Tet(C) on pACYC177) | MIC ([2]; ΔramR, Tet(M) on pACYC177) | MIC ([3]; ΔramRΔompK35/36 mutant) | MIC [4, 7]
32 µg/mL: MIC ([1]; KW1, Tet(B) on pYMAb5) | MIC ([2]; NVT1001, Tet(M) on pACYC177, read-out: MIC)
256 µg/mL: MIC ([2]; ΔramR, Tet(D) on pACYC177)
0.75 µg/mL: MIC ([1]; KW1, no supplemental plasmid) | MIC ([1]; KW1 with shuttle vector pYMAb5)
4 fold: increase in the MIC ([1]; production of Tet(A), Tet(B) or Tet(C))

[H]/N=C(/N)N[C@H]1[C@H](O)[C@@H](O)[C@H](O[C@@H]2O[C@@H](C)[C@](O)(C=O)[C@H]2O[C@@H]2O[C@@H](CO)[C@H](O)[C@@H](O)[C@@H]2NC)[C@@H](N/C(N)=N\[H])[C@@H]1O [Streptomycin]
2 µg/mL: MIC ([4]; WT, NVT1001, read-out: MIC) | MIC ([4]; ΔramR mutant) | MIC ([4]; ΔramRΔ35, ΔramRΔompK35 mutant)
no increase effects: effects on the MIC [6]
4 µg/mL: MIC ([4]; Δ35, ΔompK35 mutant) | MIC ([4]; Δ35/36, ΔompK35/36 mutant) | MIC ([4]; Δ36, ΔompK36 mutant) | MIC [4, 7] | MIC ([4]; ΔramRΔ36, ΔramRΔompK36 mutant)
not associated with increase effects: effects on the MIC / resistance [6]
not associated with observable effects: effects on the MIC / resistance [5]

CN[C@@H]1[C@H](O)[C@H](NC)[C@H]2O[C@@]3(O)C(=O)C[C@@H](C)O[C@H]3O[C@@H]2[C@H]1O [Spectinomycin]
not associated with observable effects: effects on the MIC / resistance [5]
16 µg/mL: MIC ([4]; WT, NVT1001, read-out: MIC) | MIC ([4]; Δ35, ΔompK35 mutant) | MIC ([4]; Δ35/36, ΔompK35/36 mutant) | MIC ([4]; Δ36, ΔompK36 mutant) | MIC ([4]; ΔramR mutant) | MIC ([4]; ΔramRΔ35, ΔramRΔompK35 mutant) | MIC [4, 7] | MIC ([4]; ΔramRΔ36, ΔramRΔompK36 mutant)
not associated with increase effects: effects on the MIC / resistance [6]

NCC[C@H](O)C(=O)N[C@@H]1C[C@H](N)[C@@H](O[C@H]2O[C@H](CN)[C@@H](O)[C@H](O)[C@H]2O)[C@H](O)[C@H]1O[C@H]1O[C@H](CO)[C@@H](O)[C@H](N)[C@H]1O [AMK]
>256 µg/mL: MIC ([5]; NVT1001 with ArmA on pACYC184) | MIC ([5]; NVT1001 with RmtB on pACYC184) | MIC ([6]; KW1 with ArmA on pYMAb5Tc)
2 µg/mL: MIC [5, 8] | MIC [5, 9] | MIC [5, 10] | MIC [5, 12] | MIC [5, 13] | MIC [5, 14] | MIC [5, 15] | MIC [5, 16] | MIC ([6]; KW1, no supplemental plasmid) | MIC [6, 17] | MIC [6, 18] | MIC [6, 19] | MIC [6, 20] | MIC [6, 21] | MIC [6, 22]
8 µg/mL: MIC [5, 11]

NCC[C@H](O)C(=O)N[C@@H]1C[C@H](N)[C@@H](O[C@H]2O[C@H](CN)[C@@H](O)[C@H](O)[C@H]2O)[C@H](O)[C@H]1O[C@H]1O[C@H](CO)[C@@H](O)[C@H](N)[C@H]1O [Amikacin]
susceptible: susceptibility category ([5]; strains with different aminoglycoside-modifying enzymes)
2 µg/mL: MIC ([4]; WT, NVT1001, read-out: MIC) | MIC ([4]; Δ35, ΔompK35 mutant) | MIC ([4]; Δ35/36, ΔompK35/36 mutant) | MIC ([4]; Δ36, ΔompK36 mutant) | MIC ([4]; ΔramR mutant) | MIC ([4]; ΔramRΔ35, ΔramRΔompK35 mutant) | MIC [4, 7] | MIC ([4]; ΔramRΔ36, ΔramRΔompK36 mutant)
no increase effects: effects on the MIC [6]

CN[C@@H]1[C@H](O[C@H]2[C@H](O[C@H]3[C@H](O)[C@@H](O)[C@H](N=C(N)N)[C@@H](O)[C@@H]3N=C(N)N)O[C@@H](C)[C@]2(O)C=O)O[C@@H](CO)[C@H](O)[C@H]1O [STR]
1024 µg/mL: MIC [5, 16]
12 µg/mL: MIC ([6]; KW1, no supplemental plasmid) | MIC [6, 20] | MIC [6, 21] | MIC [6, 22]
8 µg/mL: MIC [6, 17] | MIC [6, 18] | MIC [6, 19] | MIC ([6]; KW1 with ArmA on pYMAb5Tc)
2 µg/mL: MIC [5, 8] | MIC [5, 9] | MIC [5, 10] | MIC [5, 11] | MIC [5, 12] | MIC [5, 14] | MIC [5, 15] | MIC ([5]; NVT1001 with ArmA on pACYC184) | MIC ([5]; NVT1001 with RmtB on pACYC184)
16 µg/mL: MIC [5, 13]
